The values below come from patent publication US6773893B1, “Human ABC1 promoter and assays based thereon” (The Trustees of Columbia University in the City of New York, priority 2000, dated 2004).

Test [1] has as its system hABC1 mRNA in THP-1 macrophages. Put plainly: Northern blot of ABC1 mRNA in THP-1 macrophages. The class given is cell-based, human. More on the design: dose or concentration left out as unconfirmed. To be noted: 24 h, vs ethanol. The method, then: (§1) The cell lines were purchased from ATCC (Rockville, Md., USA). The murine RAW 264.7, African green monkey CV-1, and human 293 or HepG2 cell lines were maintained in Dulbecco's modified Eagle's medium (DMEM) with 10% Fetal Bovine Serum (FBS), 100 U/ml penicillin and […] streptomycin. THP-1 cells were maintained in RPMI-1640 containing L-glutamine, 10% heat inactivated FBS, 100 U/ml penicillin and […] streptomycin supplemented with 0.5 mM B-mercaptoethanol. Confluent cells were differentiated with 0.2 mM phorbol 12-myristate 13-acetate (Sigma Chemical Co., St Louis, Mo., USA) in ethanol during 72 hours. Thioglycollate-elicited peritoneal macrophages were isolated from C57 Bl/6 mice as described (31).

Test [2] concerns LXR/hRXRα binding site of the CETP promoter. Description: Luciferase reporter with 3 copies of the LXR responsive element of the CETP promoter in 293 cells. It is filed as cell-based, human. To be noted: for increase in luciferase activity: absence of transfected receptors. The method, then: (§2) Transfections were performed in 24-wells plates with Lipofectamine reagent (transactivation experiments in CV-1 and 293 cells, FIG. 6-7) or Lipofectamine-Plus reagent (Basal activation experiments in RAW 264.7, FIG. 5) according to the manufacturer's instructions (Life Technologies, Grand Island, N.Y., USA). For basal activation experiments a total of […] of reporter DNA and 0.05 mg of PRL-CMV(Renilla) (Promega Corp., Madison, Wis., USA) per well were used. For transactivation studies we used, per well, 0.025 mg of PRL-CMV, 0.2 mg of reporter DNA and 0.1 mg of each receptors (CMX-hRXRα, CMX-hLXRα, CMV-mLXRβ) or 0.2 mg of pcDNA3. The transfected cells were cultured in lipoprotein deficient serum (LPDS) medium in the presence of […] of 22(R)-hydroxycholesterol (22(R)-HCh), 25-hydroxycholesterol (25-HCh) or 7-ketocholesterol (7-KCh), […] 9-cis retinoic acid (9CRA) (Sigma Chemical Co., St Louis, Mo., USA) or ethanol alone for 24 hours. The luciferase activities were measured using Promega Dual Luciferase assay system. Reporter plasmid used to analyse the activity of hABC1 promoter was constructed by subcloning a 1029 bp PCR fragment of hABC1 promoter (−928 bp +101 bp) into pGL3-Luc basic vector (Promega). […] A shorter promoter (−469 bp to +101 bp) was generated by digestion of this plasmid with Sac1. Where shown, error bars represent the standard deviation.

In test [3] the test system is hABC1 promoter. Description: hABC1 promoter-luciferase reporter in RAW 264.7 cells. It is filed as cell-based, mouse. To be noted: for hABC1 promoter activity compared to basal conditions: 10 μM, Firefly/Renilla luciferase ratio vs ethanol; for hABC1 promoter induction (summary statement): RAW macrophages, upstream promoter (-469 bp). The method, then:
In FIG. 5A a fragment of the hABC1 promoter ([…] to +101 bp) was linked to Firefly luciferase reporter gene. The resulting plasmid was cotransfected with a control reporter plasmid (Renilla luciferase) in the mouse macrophage-like RAW 264.7 cells. Four independent transfections experiments (each in triplicates) were performed. The results are expressed as a ratio between the Firefly and Renilla luciferase activities. Cells were treated with vehicle or 22(R)-Hch (10 μM), 9CRA (10 μM) and 22(R)-Hch (10 μM)+9CRA (10 μM), 24 hours in FBS medium complemented with 10% LPDS. […] Two independent experiments in triplicate were performed according to the protocol described in (a), using a shorter promoter: […] +101 pb. […] The same experiments as (a) were performed using 22(R)-Hch (10 μM), 25-Hch (10 μM), 7K-Ch (10 μM) and 9CRA (10 μM). Three to four independent experiments in duplicate or triplicate were performed. Mann Whitney tests were mean to analyze the difference between “Ethanol” and “Treatment”. In these Figures, ***=P<0.001,*=P<0.05.
as §1, §2

Test [4] has as its system hABC1 promoter. Put plainly: hABC1 promoter (-469 bp +101 bp) luciferase reporter in 293 cells with or without LXR/RXR. To be noted: for upregulation of the hABC1 promoter: 293 cells without transfected LXR/hRXR, 10 μM, 24 h. The class given is cell-based, human. The method, then: as §1, §2
Test [5] relates to hABC1 promoter. Description: Transactivation of the hABC1 promoter by LXR/RXR in CV-1 cells. It is filed as cell-based, human. Here is the method: as §2, with “The cell lines were purchased from ATCC (Rockville, Md., USA). The murine RAW 264.7, African green monkey CV-1, and human 293 or HepG2 cell lines were maintained in Dulbecco's modified Eagle's medium (DMEM) with 10% Fetal Bovine Serum (FBS), 100 U/ml penicillin and […] streptomycin. THP-1 cells were maintained in RPMI-1640 containing L-glutamine, 10% heat inactivated FBS, 100 U/ml penicillin and […] streptomycin supplemented with 0.5 mM B-mercaptoethanol. Confluent cells were differentiated with 0.2 mM phorbol 12-myristate 13-acetate (Sigma Chemical Co., St Louis, Mo., USA) in ethanol during 72 hours. Thioglycollate-elicited peritoneal macrophages were isolated from C57 Bl/6 mice as described (31). Transfections” for “Transfections”

The next test has as its system LXR. To be noted: from cited references; cited from earlier work.
For the next test, the target named is SF1 (Homo sapiens, UniProt Q13285). The conditions noted are these: from cited references; cited from earlier work.
Chain of SF1 (Q13285 whole entry): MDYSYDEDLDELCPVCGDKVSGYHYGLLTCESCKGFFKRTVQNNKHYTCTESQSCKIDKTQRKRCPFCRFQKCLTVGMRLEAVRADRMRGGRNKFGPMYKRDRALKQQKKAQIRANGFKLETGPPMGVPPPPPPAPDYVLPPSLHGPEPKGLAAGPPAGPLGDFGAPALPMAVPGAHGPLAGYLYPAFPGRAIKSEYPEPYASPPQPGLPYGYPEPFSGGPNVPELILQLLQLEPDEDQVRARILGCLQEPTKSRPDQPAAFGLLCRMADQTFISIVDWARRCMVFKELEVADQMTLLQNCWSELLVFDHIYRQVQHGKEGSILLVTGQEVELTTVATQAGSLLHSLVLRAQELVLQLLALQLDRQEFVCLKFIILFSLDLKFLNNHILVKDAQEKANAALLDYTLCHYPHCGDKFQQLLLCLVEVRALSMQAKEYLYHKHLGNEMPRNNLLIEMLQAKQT

Entries after “also recorded” stand apart in the source; their conditions may differ.

As to 9-cis retinoic acid [9CRA], the “ABC1 mRNA induction” value in test [1] is on record as 2 fold. Also, the “increase in luciferase activity” value in test [2] is reported as 24 fold.

In the case of `CC(C)CCC[C@@H](C)[C@H]1CC[C@H]2[C@@H]3C(=O)C=C4C[C@@H](O)CC[C@]4(C)[C@H]3CC[C@]12C` [7-KCh, 7-ketocholesterol], in the test on hABC1 promoter [3] (RAW 264.7 cells, 24 h), the “hABC1 promoter activity compared to basal conditions” value is “No significant effect; also recorded: poor activator”. The “hABC1 promoter activity compared to 9CRA alone” value with hABC1 promoter [3] (RAW 264.7 cells, sterol in combination with 9CRA (10 μM each), 24 h) is on record as 2 fold.

In the case of `CC1=C(/C=C/C(C)=C\C=C\C(C)=C\C(=O)O)C(C)(C)CCC1` [9CRA, 9-cis retinoic acid], the “hABC1 promoter activity compared to basal conditions” value with hABC1 promoter [3] (RAW 264.7 cells, 24 h) is reported as 8 fold. Also, the “hABC1 promoter induction (summary statement)” value in the test with hABC1 promoter [3] is 8 fold. For the same compound, in the test on hABC1 promoter [4] (293 cells transfected with LXRα/hRXRα), the “effect on hABC1 promoter activity with transfected receptors” value is on record as “no additional effect”. The “upregulation of the hABC1 promoter” value with hABC1 promoter [4] is 3.5 fold. Moreover, the “activity compared to non-transfected cells” value in test [2] (LXR transfected) is “no further increase in activity”.

As for `CC(C)CC[C@@H](O)[C@@H](C)[C@H]1CC[C@H]2[C@@H]3CC=C4C[C@@H](O)CC[C@]4(C)[C@H]3CC[C@]12C` [22(R)-HCh, 22(R)-hydroxycholesterol], in the test on hABC1 promoter [3] (RAW 264.7 cells, 24 h), the “hABC1 promoter activity compared to basal conditions” value is recorded as 7 fold. In addition, in the test on hABC1 promoter [3], the “hABC1 promoter induction (summary statement)” value was found to be 7 fold. The “ABC1 mRNA induction” value in test [1] was determined as 2 fold. Also, the “upregulation of the hABC1 promoter” value in the test with hABC1 promoter [4] amounted to 4.5 fold. Also, the “transactivation of the hABC1 promoter compared to the control with no receptor” value is listed as 6 fold with hABC1 promoter [5] (CV-1 cells cotransfected with hRXRα/LXRα) and 8 fold with hABC1 promoter [5] (CV-1 cells cotransfected with hRXRα/LXRβ). For the same compound, in the test on hABC1 promoter [5] (CV-1 cells without transfected receptors), the “activation of the hABC1 promoter” value is given as 4 fold. Besides, the “activator of LXR / LXR-RXR” value with LXR is “good activator”. For the same compound, on SF1, the “activator of SF1” value is given as “poor activator”. Moreover, the “increase in luciferase activity” value in test [2] worked out at 14 fold.

For the compound `C[C@H](CCCC(C)(C)O)[C@H]1CC[C@H]2[C@@H]3CC=C4C[C@@H](O)CC[C@]4(C)[C@H]3CC[C@]12C` [25-HCh, 25-hydroxycholesterol], in the test on hABC1 promoter [3] (RAW 264.7 cells, 24 h), the “hABC1 promoter activity compared to basal conditions” value came out at 1.5 fold. For the same compound, the “activator of LXR / LXR-RXR” value in the test with LXR is reported as “poor activator”. The “activator of SF1” value on SF1 is recorded as “good activator”.

Regarding `C[C@@H](CO)CCC[C@@H](C)[C@H]1CC[C@H]2[C@@H]3CC=C4C[C@@H](O)CC[C@]4(C)[C@H]3CC[C@]12C` [27-HCh], the “activator of LXR / LXR-RXR” value in the test with LXR is given as “relatively poor activator”.
